Experimental data taken from patent publication US10238657B2, “Heterocyclic compounds for treating psoriasis” (JS INNOPHARM (SHANGHAI LTD.), priority 2015, dated 2019).

Experiments:
HaCaT cells [1] = assay: In-vitro screening with MTT method, inhibition of proliferation of HaCaT cells; type: cell-based, human; conditions: about 48 hours incubation
Method: Compound No. 5 was dissolved in DMSO, and gradiently diluted with PBS to prepare solutions at concentration of 1000 μg/ml, 100 μg/ml, 10 μg/ml, 1 μg/ml, 0.1 μg/ml, and 0.01 μg/ml, respectively. Cis-platinum (CDDP) was used as positive control, and sample solutions were prepared with the same method. The sample solutions were added into a 96-well plate placed with the growth phase human immortalized keratinocyte (HaCaT) cells (Pharmacology Laboratory of Shanghai Institute of Pharmaceutical Industry), and were incubated for about 48 hours. The cell relative survival rate was determined by the MTT method, and calculated according to the following formula based on the light absorption value at […]. Cell relative survival rate=(Light absorption value of sample treatment group—background light absorption value)/(Light absorption value of DMSO treatment group—background light absorption value).

mouse tail epidermis = assay: Effect on mouse tail epidermis (granular layer of tail scales); type: in vivo; conditions: cream 5% (w/w), 100 μl once daily, 7 days, female mice, n = 10
Method: 70 female mice were randomly divided into several groups: (a) saline control group, saline was used in each administration; (b) blank cream group, blank cream was used in each administration; (c) calcipotriol control group, calcipotriol in cream (5% w/w) was used in each administration; (d) four testing groups, Compound No 5 in cream at 0.5%, 1%, 2%, and 4% (w/w), respectively, was used in each administration. 100 μl of corresponding treatment was applied to the same position on the tail of the mice once daily for seven successive days. The mice were sacrificed 1 hour after the last application. The treated skin parts were taken for pathological examination, and the tail scales of each mouse was assessed under a microscope. The number of scales having a granular layer in every 100 scales was counted, and the result was expressed as percentage.

[2] = system: mouse vaginal epidermal cells; assay: Effect on mitosis of mouse vaginal epidermal cells; type: in vivo; conditions: cream 5% w/w, 25 μl intravaginal once daily, 3 days, estradiol-treated mice, n = 6
Method: Except for the saline control group, sexually mature female mice were injected with estradiol subcutaneously at a dosage of 35 mg/kg for 3 successive days. On the fourth day, in-estrus mice were selected with vaginal smear. The mice were randomly divided into several groups: (a) saline control group, saline was used in each administration; (b) blank cream group, blank cream was used in each administration; (c) calcipotriol control group, calcipotriol in cream (5% w/w) was used in each administration; (d) four testing groups, Compound No 5 in cream at concentration of 0.5%, 1%, 2%, and 4% (w/w), respectively, was used in each application. 25 μl corresponding treatment was injected into the vagina of the mice once daily for 3 successive days. Colchicine (15 mg/Kg) was intraperitoneally injected 2 hours after the last dosing. The mice were sacrificed 6 hours after the injection of colchicine. The vaginal tissue was taken out for pathological examination. The number of mitosis in one hundred basal cells was counted, which was named as the mitotic index.

guinea pig ear epidermis = assay: Propranolole hydrochloride-induced psoriasis in guinea pig model; type: in vivo; conditions: cream 5% w/w, 200 μl on both ears twice daily, 7 days
Method: Except for those in Saline control group, guinea pigs were treated with propranolole hydrochloride cream (5% w/w, 200 μl) uniformly applied on the back of both ears twice daily for four successive weeks. After four weeks, the […] were divided into several groups, namely, blank cream group, calcipotriol group, and four testing cream groups with Compound 5 at concentration of 0.5%, 1%, 2%, and 4% (w/w)), respectively. The guinea pigs in Saline control group were treated with saline on the back of both ears; the guinea pigs in other groups were treated with corresponding cream on the back of both ears (200 μl) twice daily for 7 successive days. The guinea pigs were examined during the experiment period and sacrificed 1 hour after the last dosing.

HaCaT cells [3] = assay: Morphological examination of the effect on HaCaT cell differentiation; type: cell-based, human; conditions: 48 h incubation, immunohistochemical staining
Method: HaCaT cells were cultured in DMEM culture medium containing 10% FBS under 37° C. and 5% CO2 concentration. When reaching 80% of the culture bottle area and after digestion by 0.25% trypsin, the cells were adjusted to a concentration of 4×10^4/ml and moved to a 6-well plate respectively (containing sterilized slide). Compound solutions were added. The cells were applied to the corresponding wells, and a blank control group (saline) was set. Both the sample groups and the control group were placed in a cell incubator at 37° C. Immumohistochemical staining was conducted after incubation at 48 h.
The imagine in FIG. 1A is dark brown, indicating large amount of keratin is present. […] Compound No. 5 underwent cornification (positive result).

[4] = system: chick chorioallantoic membrane; assay: Chick chorioallantoic membrane (CAM) angiogenesis model; type: in vivo, chicken; conditions: 4.0 μg/egg, 48 h
Method: Fresh eggs were incubated for 6 successive days under 37° C. and 50% humidity. On the 6th day, live eggs were identified and taken out for window-opening. First, the chorioallantoic membrane was located with illumination. Droplets of Compound No. […] After air dry, the filter paper was placed on the chorioallantoic membrane gently without contacting big vessels. The window was sealed with a transparent adhesive tape. The eggs were incubated for 48 hours continuously. The transparent adhesive tape was then uncovered. The window was enlarged and photos were taken under a dissecting microscope (FIGS. 2 A-B). New vessels were counted based on the number of blood vessel branch points in each photo. Inhibitory rate=100−[(number of new blood vessels in treatment group at 24 h)/(number of new blood vessels in treatment group at 0 h)]/[(number of blood vessels in negative control group at 24 h)/(number of blood vessels in negative control group at 0 h)]×100%.

SMILES | Test Results, effect on HaCat cell differentiation (HaCaT cells [3]) | also measured
N.N.[Cl][Pt][Cl] [CDDP, Cis-platinum, reference compound] | – | HaCaT Cells IC50 (HaCaT cells [1]): 1.41 µg/mL
C=C1/C(=C\C=C2/CCC[C@]3(C)[C@@H]([C@H](C)/C=C/[C@@H](O)C4CC4)CC[C@@H]23)C[C@@H](O)C[C@@H]1O [Calcipotriol, calcipotriol, reference compound] | – | Scales quantity in granular layer * 100% (mouse tail epidermis): 50.50 ± 4.95 %; Mitotic cell number/total cell number (%) [2]: 15.33 ± 1.21 %; Epidermal thickness (μm) (guinea pig ear epidermis): 158.72 ± 2.93 μm
C[C@H](c1cccc(Cl)c1)N1CCn2cc(-c3c[nH]c4ncc(-c5ccccc5)cc34)cc2C1=O [Compound 2, (R)-2-(1-(3-chlorophenyl)ethyl)-7-(5-phenyl-1H-pyrrolo[2,3-b]pyridin-3-yl)-3,4-dihydropyrrolo[1,2-a]pyrazin-1(2H)-one] | Positive | –
C[C@H](c1cccc(Cl)c1)N1CCn2cc(-c3n[nH]c4ncc(-c5ccccc5)cc34)cc2C1=O [Compound 3, (R)-2-(1-(3-chlorophenyl)ethyl)-7-(5-phenyl-1H-pyrazolo[3,4-b]pyridin-3-yl)-3,4-dihydropyrrolo[1,2-a]pyrazin-1(2H)-one] | Positive | –
Cc1cnc(Nc2ccc(F)cc2Cl)nc1-c1cc2n(c1)CCN([C@H](C)c1cccc(Cl)c1)C2=O [Compound 6, (R)-7-(2-((2-chloro-4-fluorophenyl)amino)-5-methylpyrimidin-4-yl)-2-(1-(3-chlorophenyl)ethyl)-3,4-dihydropyrrolo[1,2-a]pyrazin-1(2H)-one] | Positive | –
Cc1cnc(Nc2ccc(F)cc2Cl)nc1-c1cc2n(c1)CCCN([C@H](CO)c1cccc(Cl)c1)C2=O [Compound 7, (S)-8-(2-((2-chloro-4-fluorophenyl)amino)-5-methylpyrimidin-4-yl)-2-(1-(3-chlorophenyl)-2-hydroxyethyl)-2,3,4,5-tetrahydro-1H-pyrrolo[1,2-a][1,4]diazepin-1-one] | Positive | –
Cc1cnc(Nc2ccc(F)cc2Cl)nc1-c1cc2n(c1)CCN([C@H](CO)c1ccc(Cl)cc1)C2=O [Compound 8, (S)-7-(2-((2-chloro-4-fluorophenyl)amino)-5-methylpyrimidin-4-yl)-2-(1-(4-chlorophenyl)-2-hydroxyethyl)-3,4-dihydropyrrolo[1,2-a]pyrazin-1(2H)-one] | Positive | –
Cc1cnc(Nc2ccc(F)cc2Cl)nc1-c1cc2n(c1)CCN([C@H](CO)c1cccc(F)c1)C2=O [Compound 9, (S)-7-(2-((2-chloro-4-fluorophenyl)amino)-5-methylpyrimidin-4-yl)-2-(1-(3-fluorophenyl)-2-hydroxyethyl)-3,4-dihydropyrrolo[1,2-a]pyrazin-1(2H)-one] | Positive | –
Cc1cnc(Nc2ccc(F)cc2Cl)nc1-c1cc2n(c1)CCN([C@H](CO)c1ccc(F)cc1)C2=O [Compound 10, (S)-7-(2-((2-chloro-4-fluorophenyl)amino)-5-methylpyrimidin-4-yl)-2-(1-(4-fluorophenyl)-2-hydroxyethyl)-3,4-dihydropyrrolo[1,2-a]pyrazin-1(2H)-one] | Positive | –
Cc1cnc(Nc2ccc(N3CCNCC3)cc2Cl)nc1-c1cc2n(c1)CCN([C@H](CO)c1cccc(Cl)c1)C2=O [Compound 11, (S)-7-(2-((2-chloro-4-(piperazin-1-yl)phenyl)amino)-5-methylpyrimidin-4-yl)-2-(1-(3-chlorophenyl)-2-hydroxyethyl)-3,4-dihydropyrrolo[1,2-a]pyrazin-1(2H)-one] | Positive | –
Cc1cnc(Nc2ccc(C3CCNCC3)cc2Cl)nc1-c1cc2n(c1)CCN([C@H](CO)c1cccc(Cl)c1)C2=O [Compound 12, (S)-7-(2-((2-chloro-4-(piperidin-4-yl)phenyl)amino)-5-methylpyrimidin-4-yl)-2-(1-(3-chlorophenyl)-2-hydroxyethyl)-3,4-dihydropyrrolo[1,2-a]pyrazin-1(2H)-one] | Positive | –
Cc1cnc(Nc2ccc(C3CCN(C(C)C)CC3)cc2Cl)nc1-c1cc2n(c1)CCN([C@H](CO)c1cccc(Cl)c1)C2=O [Compound 13, (S)-7-(2-((2-chloro-4-(1-isopropylpiperidin-4-yl)phenyl)amino)-5-methylpyrimidin-4-yl)-2-(1-(3-chlorophenyl)-2-hydroxyethyl)-3,4-dihydropyrrolo[1,2-a]pyrazin-1(2H)-one] | Positive | –
Cc1cnc(Nc2ccc(N3CCN(S(C)(=O)=O)CC3)cc2Cl)nc1-c1cc2n(c1)CCN([C@H](CO)c1cccc(Cl)c1)C2=O [Compound 16, (S)-7-(2-((2-chloro-4-(4-(methylsulfonyl)piperazin-1-yl)phenyl)amino)-5-methylpyrimidin-4-yl)-2-(1-(3-chlorophenyl)-2-hydroxyethyl)-3,4-dihydropyrrolo[1,2-a]pyrazin-1(2H)-one] | Positive | –
Cc1cnc(Nc2ccc(F)cc2)nc1-c1cc2n(c1)CCN([C@H](CO)c1cccc(Cl)c1)C2=O [Compound 17, (S)-2-(1-(3-chlorophenyl)-2-hydroxyethyl)-7-(2-((4-fluorophenyl)amino)-5-methylpyrimidin-4-yl)-3,4-dihydropyrrolo[1,2-a]pyrazin-1(2H)-one] | Positive | –
Cc1cnc(NC2CCOCC2)nc1-c1cc2n(c1)CCN(C(c1ccc(Cl)c(F)c1)c1cnn(C)c1)C2=O (centres unmarked) [Compound 19, 2-((4-chloro-3-fluorophenyl)(1-methyl-1H-pyrazol-4-yl)methyl)-7-(5-methyl-2-((tetrahydro-2H-pyran-4-yl)amino)pyrimidin-4-yl)-3,4-dihydropyrrolo[1,2-a]pyrazin-1(2H)-one] | Positive | –
Cc1cnc(NC2CCCCC2)nc1-c1cc2n(c1)CCN([C@H](CO)c1cccc(Cl)c1)C2=O [Compound 20, (S)-2-(1-(3-chlorophenyl)-2-hydroxyethyl)-7-(2-(cyclohexylamino)-5-methylpyrimidin-4-yl)-3,4-dihydropyrrolo[1,2-a]pyrazin-1(2H)-one] | Positive | –
CNC(=O)c1cc(Oc2ccc(NC(=O)Nc3ccc(Cl)c(C(F)(F)F)c3)cc2)ccn1 [Sorafeni, Sorafenib, reference compound] | – | Number of new blood vessels 48 h ([4]; n = 3): 18.17 ± 7.60; Inhibitory rate (%) ([4]; versus PBS group): 77.27%
